The values below come from patent US8268867B2, “1,3-dioxane carboxylic acids” (Cadila Healthcare Limited, priority 2006, dated 2012).

Series [1] concerns Swiss albino mice. Put plainly: Serum triglyceride lowering activity in Swiss albino mice. It is filed as in vivo. Conditions: Mus musculus, po, 144 h; male Swiss albino mice, 10 mg/kg/day orally for 6 days, serum 1 hour after dosing on 6th day. The protocol: Male Swiss albino mice (SAM) were bred in Zydus animal house. All these animals were maintained under 12 hour light and dark cycle at 25±1° C. Animals were given standard laboratory chow (NIN, Hyderabad, India) and water ad libitum. SAM of 20-30 g body weight range was used. The protocol approved by Institutional Animal Ethics Committee is being used.
The test compounds were administered orally to Swiss albino mice at 0.001 to 50 mg/kg/day dose for 6 days. The compound was administered after suspending it in 0.25% CMC or dissolving it in water, when compound is water-soluble. Control mice were treated with vehicle (0.25% of Carboxymethyl cellulose; dose 10 ml/kg).
The blood samples were collected on 0th day and in fed state 1 hour after drug administration on 6th day of the treatment. The blood was collected in non heparinised capillary and the serum was analyzed for triglyceride (Wieland, O. Methods of Enzymatic analysis. Bergermeyer, H., O., Ed., 1963. 211-214; Trinder, P. Ann. Clin. Biochem. 1969. 6: 24-27). Measurement of serum triglyceride was done using commercial kits (Zydus-Cadila, Pathline, Ahmedabad, India).
Percentage Reduction in Triglycerides was Calculated According to the Formula: […]

For series [2], the system named is C57BL/KsJ-db/db mice. Put plainly: Serum glucose and triglycerides lowering activity in db/db mice. It is filed as in vivo. Particulars: male db/db mice, 3 mg/kg/day oral gavage for 6 days, 1 hour after dosing on 6th day. The protocol:
Homozygous animal C57BL/KsJ-db/db mice are obese, hyperglycemic, hyperinsulinemic and insulin resistant (J. Clin. Invest, 85, 962-967, 1990), whereas heterozygous are lean and normoglycemic. The homozygous animals very closely mimic the human type H diabetes when blood sugar levels are not sufficiently controlled. Since this type of model resembles human type II diabetes mellitus, the compounds of the invention were tested for their antidiabetic activity in this model.
Male C57BL/KsJ-db/db mice of 8 to 14 weeks age, having body weight range of 40 to 60 grams, procured from the Jackson Laboratory, USA, were used in the experiment.
Test compounds were suspended on 0.25% carboxymethyl cellulose or dissolved in water when the compound is water soluble and administered to test group containing 6 animals at a dose of 0.001 mg to 50 mg/kg through oral gavage daily for 6 days. The control group received vehicle (dose 10 ml/kg). On the 6th day, one hour after the drug dosing, blood was collected from retro-orbital sinus and the serum was analyzed for glucose and triglycerides were measured using commercial kits (Zydus-Cadila, Pathline, Ahmedabad, India). The serum glucose and triglyceride lowering activities of the test compound was calculated according of the formula: […]

Counter-ions that a name gives are not always drawn.

Regarding `CC(=NOCCCCC1COC(C)(C(=O)O)OC1)c1ccc2ccccc2c1` (centres unmarked) (as salt: sodium) [Example 84, Sodium Salt of 2-Methyl-5-[4-(1-naphthalen-2-yl-ethylideneaminooxy)-butyl]-[1,3]dioxane-2-carboxylic Acid], the melting point – broadly, the temperature, or range, at which the solid turns liquid – turned out to be 240 °C.
For the compound `CC(=NOCCCCC1COC(C)(C(=O)O)OC1)c1ccc(C(F)(F)F)cc1` (centres unmarked) [Example 44, 2-Methyl-5-{4-[1-(4-trifluoromethyl-phenyl)-ethylideneaminooxy]-butyl}-[1,3]dioxane-2-carboxylic Acid], in series [1], the inhibition in vivo (in general, the drop in the measured response relative to a control, in per cent) at 10 mg/kg/day stood at 40%.
On to `CC(=NOCCCCC1COC(C)(C(=O)O)OC1)c1ccc(Cl)cc1` (centres unmarked) [Example 46, 5-{4-[1-(4-Chloro-phenyl)-ethylideneaminooxy]-butyl}-2-methyl-[1,3]dioxane-2-carboxylic Acid], for which the inhibition in vivo at 10 mg/kg/day in series [1] stood at 39%.
Consider `CC(=NOCCCCC1COC(C)(C(=O)O)OC1)c1ccc(C)cc1` (centres unmarked) [Example 48, 2-Methyl-5-[4-(1-p-tolyl-ethylideneaminooxy)-butyl]-[1,3]dioxane-2-carboxylic Acid], for which, in series [2], the “Plasma TG reduction (%)” value was 44% and the “Serum Glucose reduction (%)” value turned out to be 14%. For the same compound, the inhibition in vivo at 10 mg/kg/day in series [1] worked out at 64%.
In series [1], `CC(=NOCCCCC1COC(C)(C(=O)O)OC1)c1ccc(F)c(Cl)c1` (centres unmarked) [Example 49, 5-{4-[1-(3-Chloro-4-fluoro-phenyl)-ethylideneaminooxy]-butyl}-2-methyl-[1,3]dioxane-2-carboxylic Acid] had an inhibition in vivo at 10 mg/kg/day of 51%.
The same measure, in the same setting: to `CCc1ccc(C(C)=NOCCCCC2COC(C)(C(=O)O)OC2)cc1` (centres unmarked) [Example 52, 5-{4-[1-(4-Ethyl-phenyl)-ethylideneaminooxy]-butyl}-2-methyl-[1,3]dioxane-2-carboxylic Acid] belongs 36%.
Regarding `CCOc1ccc(C(C)=NOCCCCC2COC(C)(C(=O)O)OC2)cc1` (centres unmarked) [Example 55, 5-{4-[1-(4-Ethoxy-phenyl)-ethylideneaminooxy]-butyl}-2-methyl-[1,3]dioxane-2-carboxylic Acid], the inhibition in vivo at 10 mg/kg/day in series [1] amounted to 46%.
Still for that read-out and setting: to `COc1ccc(C(C)=NOCCCCC2COC(C)(C(=O)O)OC2)cc1C` (centres unmarked) [Example 57, 5-{4-[1-(4-Methoxy-3-methyl-phenyl)-ethylideneaminooxy]-butyl}-2-methyl-[1,3]dioxane-2-carboxylic Acid] belongs 43%; to `COc1ccc(C(C)=NOCCCCC2COC(C)(C(=O)O)OC2)cc1OC` (centres unmarked) [Example 59, 5-{4-[1-(3,4-Dimethoxy-phenyl)-ethylideneaminooxy]-butyl}-2-methyl-[1,3]dioxane-2-carboxylic Acid], 22%; to `CC(=NOCCCCC1COC(C)(C(=O)O)OC1)c1ccc(CC(C)C)cc1` (centres unmarked) [Example 60, 5-{4-[1-(4-Isobutyl-phenyl)-ethylideneaminooxy]-butyl}-2-methyl-[1,3]dioxane-2-carboxylic Acid], 62%.
`COc1ccc(C(C)=NOCCCCC2COC(C)(C(=O)O)OC2)cc1F` (centres unmarked) [Example 61, 5-{4-[1-(3-Fluoro-4-methoxy-phenyl)-ethylideneaminooxy]-butyl}-2-methyl-[1,3]dioxane-2-carboxylic Acid] came in with an inhibition in vivo at 10 mg/kg/day in series [1] of 44%.
The same measure, in the same setting: to `CC(=NOCCCCCC1COC(C)(C(=O)O)OC1)c1ccc2ccccc2c1` (centres unmarked) [Example 62, 2-Methyl-5-[5-(1-naphthalen-2-yl-ethylideneaminooxy)-pentyl]-[1,3]dioxane-2-carboxylic Acid] belongs 69%.
For `CC(=NOCCCCC1COC(C)(C(=O)O)OC1)c1ccc2ccccc2c1` (centres unmarked) [Example 63, 2-Methyl-5-[4-(1-naphthalen-2-yl-ethylideneaminooxy)-butyl]-[1,3]dioxane-2-carboxylic Acid], in series [2], the “Plasma TG reduction (%)” value is reported as 59% and the “Serum Glucose reduction (%)” value amounted to 41%. This compound returned an inhibition in vivo at 10 mg/kg/day in series [1] of 84%.
Regarding `CC(=NOCCCCC1COC(C)(C(=O)O)OC1)c1ccc2c(c1)CCCC2` (centres unmarked) [Example 64, 2-Methyl-5-{4-[1-(5,6,7,8-tetrahydro-naphthalen-2-yl)-ethylideneaminooxy]-butyl}-[1,3]dioxane-2-carboxylic Acid], in series [2], the “Plasma TG reduction (%)” value came to 46% and the “Serum Glucose reduction (%)” value is 31%. In addition, the inhibition in vivo at 10 mg/kg/day in series [1] worked out at 85%.
Taken in the same sequence, the figures for `COc1ccc(C(C)=NOCCCCC2COC(C)(C(=O)O)OC2)cc1` (centres unmarked) [Example 66, 5-{4-[1-(4-Methoxy-phenyl)-ethylideneaminooxy]-butyl}-2-methyl-[1,3]dioxane-2-carboxylic Acid] were 45%, 27% and 50%.
The corresponding values for `CC(=NOCCCCC1COC(C)(C(=O)O)OC1)c1ccc(OS(C)(=O)=O)cc1` (centres unmarked) [Example 67, 5-{4-[1-(4-Methanesulfonyloxy-phenyl)-ethylideneaminooxy]-butyl}-2-methyl-[1,3]dioxane-2-carboxylic Acid] are 48%, 12% and 75%.
Consider `CC(=NOCCCCC1COC(C)(C(=O)O)OC1)c1cccs1` (centres unmarked) [Example 68, 2-Methyl-5-[4-(1-thiophen-2-yl-ethylideneaminooxy)-butyl]-[1,3]dioxane-2-carboxylic Acid], for which the inhibition in vivo at 10 mg/kg/day in series [1] stood at 33%.
As for `CC(=NOCCCCC1COC(C)(C(=O)O)OC1)c1ccc2c(c1)OCO2` (centres unmarked) [Example 69, 5-[4-(1-Benzo[1,3]dioxol-5-yl-ethylideneaminooxy)-butyl]-2-methyl-[1,3]dioxane-2-carboxylic acid], in series [1], the inhibition in vivo at 10 mg/kg/day came out at 61%.
As for `CC(=NOCCCCC1COC(C)(C(=O)O)OC1)c1ccc(-c2ccccc2)cc1` (centres unmarked) [Example 70, 5-[4-(1-Biphenyl-4-yl-ethylideneaminooxy)-butyl]-2-methyl-[1,3]dioxane-2-carboxylic Acid], in series [2], the “Plasma TG reduction (%)” value was determined as 52% and the “Serum Glucose reduction (%)” value is 26%. Moreover, the inhibition in vivo at 10 mg/kg/day in series [1] is 49%.
The compound `CC(=NOCCCCC1COC(C)(C(=O)O)OC1)c1cccc(C)c1` (centres unmarked) [Example 76, 2-Methyl-5-[4-(1-m-tolyl-ethylideneaminooxy)-butyl]-[1,3]dioxane-2-carboxylic Acid] gave an inhibition in vivo at 10 mg/kg/day in series [1] of 67%.
The same measure, in the same setting: to `CCC(=NOCCCCC1COC(C)(C(=O)O)OC1)c1ccc(OC)cc1` (centres unmarked) [Example 77, 5-{4-[1-(4-Methoxy-phenyl)-propylideneaminooxy]-butyl}-2-methyl-[1,3]dioxane-2-carboxylic Acid] belongs 39%; to `CCC(=NOCCCCC1COC(C)(C(=O)O)OC1)c1ccc(C)cc1` (centres unmarked) [Example 78, 2-Methyl-5-[4-(1-p-tolyl-propylideneaminooxy)-butyl]-[1,3]dioxane-2-carboxylic Acid], 42%; to `CCCCCCCCOC(=O)C1(C)OCC(CCCCON=C(C)c2ccc3ccccc3c2)CO1` (centres unmarked) [Example 83, Octyl-2-methyl-5-[4-(1-naphthalen-2-yl-ethylideneaminooxy)-butyl]-[1,3]dioxane-2-carboxylate], 61%.
